In this assay the target is T1, SOS1 protein (Homo sapiens, UniProt Q07889).
T1 sequence (Q07889 1-1333): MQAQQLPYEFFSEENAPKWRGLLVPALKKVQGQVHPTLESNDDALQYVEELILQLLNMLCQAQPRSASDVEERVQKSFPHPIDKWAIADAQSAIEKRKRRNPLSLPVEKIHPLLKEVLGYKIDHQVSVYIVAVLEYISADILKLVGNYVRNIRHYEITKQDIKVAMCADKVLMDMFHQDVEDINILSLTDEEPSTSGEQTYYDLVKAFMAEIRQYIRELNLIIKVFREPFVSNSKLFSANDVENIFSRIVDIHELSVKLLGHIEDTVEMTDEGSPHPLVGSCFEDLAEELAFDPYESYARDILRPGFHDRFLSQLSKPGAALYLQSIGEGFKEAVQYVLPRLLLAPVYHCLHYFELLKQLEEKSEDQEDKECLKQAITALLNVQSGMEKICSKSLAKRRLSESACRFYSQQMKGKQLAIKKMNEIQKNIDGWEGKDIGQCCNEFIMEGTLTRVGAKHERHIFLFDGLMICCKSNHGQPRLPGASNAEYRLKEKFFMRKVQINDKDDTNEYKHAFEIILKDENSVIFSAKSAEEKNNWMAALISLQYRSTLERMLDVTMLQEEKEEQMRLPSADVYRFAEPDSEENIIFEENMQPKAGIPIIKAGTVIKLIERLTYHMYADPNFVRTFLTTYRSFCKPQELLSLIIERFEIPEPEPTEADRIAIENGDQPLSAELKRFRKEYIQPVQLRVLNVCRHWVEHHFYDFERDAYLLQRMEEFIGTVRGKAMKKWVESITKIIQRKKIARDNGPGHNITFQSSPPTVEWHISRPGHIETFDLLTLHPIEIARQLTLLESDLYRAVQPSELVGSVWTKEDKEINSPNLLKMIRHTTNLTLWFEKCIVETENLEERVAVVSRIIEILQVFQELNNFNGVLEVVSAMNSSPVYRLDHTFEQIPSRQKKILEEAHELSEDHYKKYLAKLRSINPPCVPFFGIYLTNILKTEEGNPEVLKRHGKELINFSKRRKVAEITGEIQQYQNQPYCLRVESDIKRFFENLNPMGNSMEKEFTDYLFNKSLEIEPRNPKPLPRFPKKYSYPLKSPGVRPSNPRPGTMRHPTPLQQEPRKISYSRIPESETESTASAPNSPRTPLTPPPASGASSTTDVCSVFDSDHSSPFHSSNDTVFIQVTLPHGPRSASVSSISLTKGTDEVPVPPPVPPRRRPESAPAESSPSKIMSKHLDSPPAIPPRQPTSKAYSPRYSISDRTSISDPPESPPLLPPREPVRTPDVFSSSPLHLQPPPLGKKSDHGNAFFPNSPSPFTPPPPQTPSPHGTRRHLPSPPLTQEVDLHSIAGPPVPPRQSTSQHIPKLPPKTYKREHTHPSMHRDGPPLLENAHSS
Description: SOS1 degradation assay (Western blot) in SW-620 cells. The format is cell-based. On the set-up: host or cells: NCI-H358, A-427, SW-620, DLD-1 (human cancer cell lines). As to conditions: SW-620 (KRAS G12V), 24 h; for DC50: read-out: SW620 (G12V) DC50; for Dmax: read-out: SW620 (G12V) Dmax. How it is done: Test Example 2: SOS1 Degradation Assay
The degradation of SOS1 by the compounds was investigated on KRAS G12C mutant human non-small cell lung cancer cells NCI-H358 (ATCC or Stem Cell Bank, Chinese Academy of Sciences), KRAS G12D mutant human lung cancer cells A-427 (ATCC), KRAS G12V mutant human colorectal adenocarcinoma cells SW-620 (ATCC), and KRAS G13D mutant human colorectal adenocarcinoma epithelial cells DLD-1 (ATCC). The specific procedures were as follows:
0.95 mL of cells were seeded into each well of a 24-well cell culture plate to achieve a cell density of 5×10^5 cells/well; the cell plate was incubated in an incubator at 37° C. with 5% CO2 overnight. Then 50 μL of the compound solution after dilution was added to each of the wells with the corresponding cells, so that the final concentration of the compound was in a range of 0.03-3000 nM. The final concentration of DMSO was 0.25%.
After dosing, the cell plate was incubated in an incubator at 37° C. with 5% CO2 for 24 h. The cell culture medium in the 24-well plate was removed, and the plate was washed twice with 1×PBS. 180 μL of RIPA (strong) lysis buffer (Beyotime, P0013B) supplemented with 1 mM phenylmethylsulfonyl fluoride, a protease inhibitor mixture (Beyotime, P1008), and a protease phosphatase inhibitor mixture (Beyotime, P1045) was added to lyse adherent NCI-H358 cells at the bottom of the cell culture plate. After the plate was left to stand on ice for 30 min, the protein lysate in each well was transferred to a 1.5 mL centrifuge tube and centrifuged at 15000 g for 20 min at 4° C. […] The concentration of total protein in the cell lysate supernatant was determined using the BCA Protein Quantification Kit (Tiangen, PA115-02). […]
The concentration of total protein in the cell lysate was determined by BCA. […] After the blocking, the PVDF membrane was incubated with an SOS1 primary antibody (Abcam, ab140621) at 4° C. overnight, washed with a TBST buffer (2.4 g of Tris, 8.8 g of NaCl, 1.5 mL of Tween 20, with pH adjusted to 7.4, with the volume brought to 1 L) for 30 min (10 min/time), incubated with a secondary antibody (Abcam, ab205718) at room temperature for 2 h, washed with a TBST buffer for 30 min (10 min/time), and finally incubated with Clarity Western ECL Substrate (BIO-RAD, 170-5061) for 5 min for luminescence and color development, and a chemiluminescence imaging system (Clinx, ChemiScope 6200 Touch) was used for color development and protein mapping. […] The gray correction value for each sample was calculated by the formula: gray correction value=(gray value of target protein/gray value of corresponding internal reference)×103. Then the degradation rate was calculated by comparing the gray correction value with the gray correction value of the control group. […]
A general note: In western blotting, separated proteins are transferred to a membrane and probed.

Results on two compounds are retold here after patent US20240261418A1, “SOS1 DEGRADING AGENT AND PREPARATION METHOD THEREFOR AND APPLICATION THEREOF” (SHANGHAI LEADINGTAC PHARMACEUTICAL CO. LTD., priority 2021, published 2024).

Where only a bound is given, the exact number is not on record here.

By DC50 is commonly meant the concentration at which degradation of the target reaches its halfway point. One may read the Dmax as the largest share of the target that was removed. As for `COc1cc2nc(C)nc(N[C@H](C)c3cc(-c4c(Cl)cccc4CN(C)C)cs3)c2cc1[C@H]1CC[C@H](C(=O)N2CCN(CC3CCC4(CC3)CCN(C(=O)c3ccc(Cl)c(N5CCC(=O)NC5=O)c3)CC4)CC2)CC1` [Example 1, 1-(2-chloro-5-(9-((4-((1R,4R)-4-(4-(((R)-1-(4-(2-chloro-6-((dimethylamino)methyl)phenyl)thien-2-yl)ethyl)amino)-7-methoxy-2-methylquinazolin-6-yl)cyclohexane-1-carbonyl)piperazin-1-yl)methyl)-3-azaspiro[5.5]undecane-3-carbonyl)phenyl)dihydropyrimidine-2,4(1H,3H)-dione], the DC50 was ≤ 50 nM and the Dmax lay within 80 to 100%.

As to `COc1cc2nc(C)nc(N[C@H](C)c3cc(-c4c(Cl)cccc4CN(C)C)cs3)c2cc1[C@H]1CC[C@H](C(=O)N2CCC(CCOCC3CCN(C(=O)c4ccc(Cl)c(N5CCC(=O)NC5=O)c4)CC3)CC2)CC1` [Example 5, 1-(2-chloro-5-(4-((2-(1-((1R,4R)-4-(4-(((R)-1-(4-(2-chloro-6-((dimethylamino)methyl)phenyl)thien-2-yl)ethyl)amino)-7-methoxy-2-methylquinazolin-6-yl)cyclohexane-1-carbonyl)piperidin-4-yl)ethoxy)methyl)piperidine-1-carbonyl)phenyl)dihydropyrimidine-2,4(1H,3H)-dione], the DC50 was ≤ 50 nM and the Dmax was 80 to 100%.
